Laboratory results published in ChEMBL document CHEMBL4627377, “Betulin isolated from Pyrola incarnata Fisch. inhibited lipopolysaccharide (LPS)-induced neuroinflammation with the guidance of computer-aided drug design” (Bioorg Med Chem Lett, 2020).
Activity calls are given as the source filed them. The calls are words filed in the database; no cut-off is given here.

Experiments:
BV-2 [1] = assay: Inhibition of LPS-induced IL-1beta production in […] BV2 cells at 250 ug/ml preincubated for 4 hrs followed by LPS stimulation and measured after 24 hrs by ELISA; assay type: functional, cell-based; conditions: Mus musculus
BV-2 [2] = assay: Inhibition of LPS-induced TNF-alpha production in […] BV2 cells at 250 ug/ml preincubated for 4 hrs followed by LPS stimulation and measured after 24 hrs by ELISA; assay type: functional, cell-based; conditions: Mus musculus
BV-2 [3] = assay: Cytotoxicity against […] BV2 cells assessed as survival rate at 250 ug/ml; assay type: cell-based; conditions: mouse
BV-2 [4] = assay: Inhibition of LPS-induced IL6 production in […] BV2 cells at 20 ug/ml preincubated for 4 hrs followed by LPS stimulation and measured after 24 hrs by ELISA; assay type: functional, cell-based; conditions: Mus musculus
BV-2 [5] = assay: Inhibition of LPS-induced NO release in […] BV2 cells at 20 ug/ml preincubated for 4 hrs followed by LPS stimulation and measured after 24 hrs by Griess reagent based assay; assay type: functional, cell-based; conditions: Mus musculus
BV-2 [6] = assay: Inhibition of LPS-induced NO release in […] BV2 cells at 62.5 to 250 ug/ml preincubated for 4 hrs followed by LPS stimulation and measured after 24 hrs by Griess reagent based assay; assay type: functional, cell-based; conditions: Mus musculus
BV-2 [7] = assay: Inhibition of LPS-induced TNF-alpha production in […] BV2 cells preincubated for 4 hrs followed by LPS stimulation and measured after 24 hrs by ELISA; assay type: functional, cell-based; conditions: Mus musculus
BV-2 [8] = assay: Cytotoxicity against […] BV2 cells assessed as survival rate at 125 ug/ml; assay type: cell-based; conditions: mouse
BV-2 [9] = assay: Inhibition of LPS-induced IL-1beta production in […] BV2 cells preincubated for 4 hrs followed by LPS stimulation and measured after 24 hrs by ELISA; assay type: functional, cell-based; conditions: Mus musculus
BV-2 [10] = assay: Inhibition of LPS-induced JNK-54 phosphorylation in […] BV2 cells at 62.5 to 250 ug/ml preincubated for 4 hrs followed by LPS stimulation and measured after 24 hrs by Western blot analysis; assay type: functional, cell-based; conditions: Mus musculus
BV-2 [11] = assay: Inhibition of LPS-induced IL6 production in […] BV2 cells preincubated for 4 hrs followed by LPS stimulation and measured after 24 hrs by ELISA; assay type: functional, cell-based; conditions: Mus musculus
BV-2 [12] = assay: Inhibition of LPS-induced JNK-46 activation in […] BV2 cells preincubated for 4 hrs followed by LPS stimulation and measured after 24 hrs by Western blot analysis; assay type: functional, cell-based; conditions: Mus musculus
BV-2 [13] = assay: Inhibition of LPS-induced NF-kappaB/p65 nuclear translocation in […] BV2 cells assessed as reduction in p65/NFkappaB level at 250 ug/ml by DAPI staining based fluorescence microscopic analysis; assay type: functional, cell-based; conditions: Mus musculus
BV-2 [14] = assay: Inhibition of LPS-induced JNK-54 activation in […] BV2 cells preincubated for 4 hrs followed by LPS stimulation and measured after 24 hrs by Western blot analysis; assay type: functional, cell-based; conditions: Mus musculus
BV-2 [15] = assay: Inhibition of LPS-induced iNOS expression in […] BV2 cells at 250 ug/ml preincubated for 4 hrs followed by LPS stimulation and measured after 24 hrs by Western blot analysis; assay type: functional, cell-based; conditions: Mus musculus
BV-2 [16] = assay: Inhibition of LPS-induced JNK-46 phosphorylation in […] BV2 cells at 62.5 to 250 ug/ml preincubated for 4 hrs followed by LPS stimulation and measured after 24 hrs by Western blot analysis; assay type: functional, cell-based; conditions: Mus musculus
BV-2 [17] = assay: Cytotoxicity against […] BV2 cells assessed as survival rate at 500 ug/ml; assay type: cell-based; conditions: mouse

With `C[C@@H]1CC[C@]2(C(=O)O[C@H]3O[C@@H](CO)[C@H](O)[C@@H](O)[C@@H]3O)CC[C@]3(C)C(=CC[C@@H]4[C@@]5(C)CC[C@H](O)[C@@](C)(CO)[C@@H]5CC[C@]43C)[C@@H]2[C@]1(C)O` the inhibition (BV-2 [1]) was “Active”, the inhibition (BV-2 [2]) was “Active” and the Activity (BV-2 [3]) was “Non-Toxic”.

With `COc1cc2c(cc1OC)C(=O)C(CC1CCN(Cc3ccccc3)CC1)C2` (configuration not stated) the inhibition (BV-2 [4]) was “Active” and the inhibition (BV-2 [5]) was “Active”.

In the case of `C=C(C)[C@@H]1CC[C@]2(CO)CC[C@]3(C)[C@H](CC[C@@H]4[C@@]5(C)CC[C@H](O)C(C)(C)[C@@H]5CC[C@]43C)[C@@H]12` [BETULIN], the inhibition (BV-2 [6]) is reported as “Active”, the inhibition (BV-2 [7]) is reported as “Dose-dependent effect” and the Activity (BV-2 [8]) is reported as “Non-Toxic”. For the same compound, the inhibition (BV-2 [9]) was “Dose-dependent effect”, the inhibition (BV-2 [10]) was “Active” and the inhibition (BV-2 [11]) was “Dose-dependent effect”. The inhibition (BV-2 [12]) was “Dose-dependent effect”, the inhibition (BV-2 [13]) was “Active” and the inhibition (BV-2 [14]) was “Dose-dependent effect”. The inhibition (BV-2 [15]) was “Active” and the inhibition (BV-2 [16]) was “Active”.

In the case of `C[C@@H]1CC[C@]2(C(=O)O)CC[C@]3(C)C(=CC[C@@H]4[C@@]5(C)CC[C@H](O)[C@@](C)(CO)[C@@H]5CC[C@]43C)[C@@H]2[C@]1(C)O` [ROTUNDIC ACID], the inhibition (BV-2 [1]) is reported as “Active”, the inhibition (BV-2 [2]) is reported as “Active” and the Activity (BV-2 [3]) is reported as “Non-Toxic”.

With `C[C@H]1[C@H](C)CC[C@]2(C(=O)O)CC[C@]3(C)C(=CC[C@@H]4[C@@]5(C)CC[C@H](O)C(C)(C)[C@@H]5CC[C@]43C)[C@H]12` [URSOLIC ACID] the inhibition (BV-2 [1]) was “Active”, the inhibition (BV-2 [2]) was “Active” and the Activity (BV-2 [17]) was “Non-Toxic”.
